Results from patent US8609616B2, “Strontium-containing compounds for use in the prevention or treatment of necrotic bone conditions” (Osteologix A/S, priority 2004, dated 2013).

Tested on: animal model of osteonecrosis
Assay: Effect of strontium malonate in an animal model of osteonecrosis (necrotic bone graft in titanium chamber, histology)
Format: in vivo, rat
Conditions: male Sprague-Dawley rats, necrotic bone graft in tibia, 1.6 g/l in drinking water ad libitum (approx. 120 mg strontium malonate/day), 6 weeks; mean (±SD); p=0.038 vs calcium malonate control 2.24 (±1.00)
Text: The rationale for the study was to assess the ability of strontium to act as a therapeutic and bone growth promoting (i.e. pro-anabolic) agent in an animal model of osteonecrosis. […] The necrotic graft was degraded, while ingrowth of new bone occurred. At termination of the experiment, the structural grafts was removed and analyzed by histology to quantify both the degradation of the necrotic graft as well as ingrowth of new bone. Concomitant treatment with anabolic and/or anti-resorptive agents may be given after the insertion of the necrotic graft, and the effect monitored after termination of the experiment. This rat model has previously been described (Astrand J, Aspenberg P. BMC Musculoskelet Disord. 2002; 3(1):19).
The salts were prepared in a solution of 1.6 g/l, which is close to saturation (22-25° C.). Thus extensive stirring was required to completely dissolve the substances. A new batch of drinking water was prepared fresh every week for the duration of the experiment. When not in use the solution was stored at room temperature in a closed container. […]
After careful removal from the titanium chamber, the grafts were decalcified in 10% formic acid, 2% formaldehyde for 14 days. […] Each section was subsequently stained with hematoxylin and eosin, and visually scored for appearance of degradation of the necrotic graft as well as ingrowth of new bone.

SMILES: O=C([O-])CC(=O)[O-].[Sr+2] [strontium malonate]
- average ingrowth of new bone (ingrowth distance): 3.43 (±1.35 (SD)) mm
